Laboratory results: patent US20090297624A1, “ARSENIC THERAPY FOR AUTOIMMUNE AND/OR INFLAMMATORY DISEASES IN MICE AND HUMANS” (CENTRE NATIONALE DE LA RECHERCHE SCIENTIFIQUE (CNRS), priority 2002, published 2009)
Where “and” joins values, the source holds several entries; their conditions need not be identical. Equal values may be shown once.

Tests used:
[1] = tested on: NOD (non obese diabetic) mice; experiment: Arsenic treatment of diabetic NOD mice, glucose in urine; type: in vivo, mouse; conditions: 5-month-old female NOD mice treated for 2 months
Procedure: 5-Month-old female NOD (non obese diabetic) mice, which were developing the first symptoms of diabetes, were treated for 2 months with arsenic. The evolution of the pathology was evaluated by measuring the amount of glucose in the urine.

MRL+/+ mouse = experiment: Arsenic treatment of control MRL+/+ mice; type: in vivo
Procedure: (§1) Initially, the inventors determined the optimum dose of arsenic (As2O3) to be injected into the MRL/lpr mice. Two concentrations were chosen: 1 and 5 μg of As2O3/g of mouse. At date T0, these injections were given daily. […] Knowing that the MRL/lpr autoimmune mice die, on average, after 4 to 5 months, compared with the normal MRL+/+ mice which die after ˜2 years, the inventors decided to conserve, for the subsequent treatments, only the dose of 5 μg/g of mice.
(§2) Each of the five groups has its controls consisting in injecting the dilution buffer for the arsenic. In addition, the animals present in the control and treated groups are derived from the same litter, which makes it possible to obtain reliable comparisons. At T0+5 months, more than 60 mice (MRL/lpr and MRL+/+) are undergoing treatment.
(§3) In parallel with these studies on the skin, other organs that are targets for autoimmune pathologies, such as the kidney, the lung, the liver, the eye, etc., were removed and analyzed by anatomopathology. In addition, these various organs, along with the spleen, the lymph nodes and the thymus, were weighed.
(§4) The aim of this group of animals, which was begun at T0, is to evaluate the preventive effect of an arsenic treatment on the development of the lymphoproliferation and of the autoimmune pathologies. To do this, 4 groups of animals 1.5 months old were formed. Two of these groups consist of MRL/lpr mice and the other two groups consist of MRL+/+ mice. One MRL/lpr group and one MRL+/+ group were treated with 5 μg of arsenic per gram of mouse, and the other two control groups were treated with the dilution buffer for the arsenic. At T0+1 month, animals from each group were sacrificed. The organs analyzed were the thymus, the spleen, the lymph nodes, the skin, the liver, the kidney and the heart. […] The arsenic therefore has a preventive effect on the development of the lymphoproliferation. The phenotype of the lymphoid populations present in this spleen and this node was determined by flow cytometry. As for the results for group 1, the arsenic makes it possible to eliminate the population of double-negative T cells which accumulate as the MRL/lpr mouse ages. In addition, the organs of these treated mice have a normal weight; there is therefore neither the lympho-proliferation nor the hepatomegaly that are observed in the control mice. The liver, the spleen, a lymph node, an eye, etc., were removed in order to be analyzed by anatomopathology.

MRL/lpr→MRL+/+ chimeras = experiment: As2O3 treatment of MRL/lpr→MRL+/+ chimeras (GVH reaction); type: in vivo, mouse
Procedure: In addition, lethally irradiated MRL+/+ mice had their bone marrow reconstituted with bone marrow from MRL/lpr mice (MRL/lpr→MRL+/+ chimeras) or with bone marrow from MRL+/+ mice (MRL+/+→MRL+/+ chimeras) as a control. After reconstitution, the chimeras are treated with arsenic or are not treated. While 100% of the untreated MRL/lpr→MRL+/+ chimeras died of a graft-versus-host (GvH) reaction two weeks after the transplant, the chimeras treated with arsenic were alive. The arsenic is therefore effective against GvH and makes it possible to spectacularly increase the survival of the animals.
(§5) Hematopoietic chimeras. Spleen and bone marrow cells from MRL/lpr were injected i.v. into MRL+/+ lethally irradiated (1000 cGy) in a ^137Cesium irradiator (MRL/Lpr→MRL+/+ chimeras). The control group consisted of irradiated MRL+/+ grafted with MRL+/+ cells (MRL+/+→MRL+/+ chimeras). All mice used in this graft protocol were sex matched.
(§6) MRL/Lpr→MRL+/+ and MRL+/+→MRL+/+ chimeras were injected i.p. daily with 2.5, 5, 7.5, 10 or 15 μg/g body weight of As2O3; controls received a daily i.p. injection of PBS (volume weight-determined). Treatments were initiated one week post-grafting.
Blood samples were collected at different times after grafting and glutamic-oxaloacetic transaminase (GOT) and glutamic-pyruvic transaminase (GPT) levels were measured (IU/l).
(§7) Serum levels of IFN-α, IFN-γ, soluble FasL, IL-18, TNF-α were assayed using the Mouse Interferon-alpha (PBL Biomedical laboratories, New Jersey, USA), the Mouse Interferon-gamma ELISA Ready-SET-Go (eBioscience, San Diego, Calif.), Mouse Fas Ligand Immunossay (Quantikine M kit; R&D systems, Minneapolis, Minn.), Mouse IL-18 ELISA (R&D Systems), Mouse TNF-α Immunoassay (R&D systems), respectively, following the manufacturer's instructions.
Serum levels of nitrite were measured using the Nitric Oxide quantification kit (Active Motif, Rixensart, Belgium), according to the manufacturer's instructions (data not shown).

MRL+/+→MRL+/+ chimeras = experiment: As2O3 treatment of control MRL+/+→MRL+/+ chimeras; type: in vivo, mouse; conditions: serum ELISA
Procedure: as §5, §6, §7

MRL/lpr mouse [2] = experiment: Preventive arsenic treatment of MRL/lpr mice; type: in vivo
Procedure: This study is aimed at preventing the appearance of the pathologies.
as §4
It is desirable to determine very precisely the preventive and curative effect of various doses of arsenic on the evolution of the pathologies developed by the MRL/lpr mice. Five groups of animals (MRL/lpr and MRL+/+) were treated with the following concentrations: 2.5, 5, 7.5, 10 and 15 μg/g of mouse.

MRL/lpr mouse [3] = experiment: Curative arsenic (As2O3) treatment of MRL/lpr autoimmune mice; type: in vivo
Source text: The inventors have studied mice referred to as MRL mice homozygous for the lpr mutation (MRL/lpr). Lymphoproliferation (lpr) results in an accumulation of activated T lymphocytes, of phenotype CD4^+CD8^− or CD4^−CD8^+ which have escaped the process of negative regulation via the apoptotic pathway. Thus, in MRL/lpr mice, hypertrophy of lymph nodes occurs, the mass of which is 100 times greater than that of the lymph nodes of MRL+/+mice, which are congenic for the lpr gene, and a spleen whose size is multiplied by 7 and a thymus whose weight, at the 22nd week, is double that of the MRL+/+ mice are observed. These activated T lymphocytes which accumulate will gradually repress the expression of their CD4 or CD8 receptors and become double-negative T lymphocytes having the phenotype: TCRαβCD4^−CD8^−B220^+, which will be responsible for the lymphoproliferation.
The MRL/lpr mouse is in particular a spontaneous model of autoimmune diseases such as disseminated lupus erythematosus with the presence of erythematous lesions of the skin and of rheumatoid arthritis. […] These mice produce, as they age, a large quantity of autoantibodies which are responsible for a lethal glomerulonephritis due to immunocomplex deposits in the glomeruli of the kidney. Thus, the lifespan of the MRL/lpr mouse is considerably shortened compared with that of the MRL+/+ mouse: ˜4-5 months in the MRL/lpr mouse compared with ˜2 years in the MRL+/+ mouse.
as §1
From the end of the first week of treatment, the inventors formed 5 groups of animals: • b 1st group, aimed at the curative treatment of an already present pathology, • 2nd group, aimed at preventing the appearance of pathologies, • 3rd group, aimed at determining the lifespan of the treated animals, • 4th group, aimed at determining the dose effect, • 5th group, aimed at evaluating the effect of stopping the treatment.
as §2
This study is aimed at the curative treatment of an already present pathology.
as §3
After 1 month and 20 days of treatment, a group of 3 control MRL/lpr mice and a group of 3 treated MRL/lpr mice were sacrificed in order to evaluate the effectiveness of the treatment on the lympho-proliferation. The organs analyzed were the thymus, the spleen and the lymph nodes. […] The phenotype of the lymphoid populations present in this spleen and this node was determined by flow cytometry. […] In addition, this cell population of abnormal phenotype is replaced with T lymphocytes of normal phenotype CD4^+CD8^− and CD4^−CD8^+ (FIG. 5). However, the level of reduction of the number of these double-negative T cells depends on the duration of the treatment. […]

[4] = MRL+/+ mice treated with arsenic
[5] = preventive, 5 μg/g, at T0+1 month
[6] = MRL/lpr mice treated with arsenic
[7] = MRL/lpr, treated with arsenic for two months, treatment then stopped for two months
[8] = end of the first month of treatment, 5 μg/g

O=[As]O[As]=O (centres unmarked) [As2O3]
glucose level in the urine [1]: normal glucose level in the urine
Organ weight, 2 lungs (MRL+/+ mouse; [4]): 0.32 grams and 0.30 grams
Organ weight, axillary nodes (MRL+/+ mouse; [4]): 0.01 grams
Organ weight, heart (MRL+/+ mouse; [4]): 0.22 grams
Organ weight, kidney (MRL+/+ mouse; [4]): 0.44 grams
Organ weight, liver (MRL+/+ mouse; [4]): 2.40 grams and 2.45 grams
Organ weight, mesenteric nodes (MRL+/+ mouse; [4]): 0.05 grams and 0.03 grams
Organ weight, spleen (MRL+/+ mouse; [4]): 0.10 grams and 0.15 grams
treatment-related pathologies (MRL+/+ mouse; MRL+/+ mice, 5 μg/g, at T0+5 months): no sign of treatment-related pathologies
soluble and membrane-associated FasL levels (MRL/lpr→MRL+/+ chimeras; ELISA of sera and Western blotting of lymphoid cell lysates, FIG. 10A): sharply decreased
serum IFN-α level (MRL/lpr→MRL+/+ chimeras; ELISA, FIG. 11A): maintained normal cytokine concentrations
serum TNF-α level (MRL/lpr→MRL+/+ chimeras; ELISA, FIG. 11B): maintained normal cytokine concentrations
Transaminase levels (GOT) (MRL/lpr→MRL+/+ chimeras; FIG. 10B): normalised
level of other inflammatory cytokines and NO (MRL/lpr→MRL+/+ chimeras; data not shown): reduced
survival (MRL/lpr→MRL+/+ chimeras; male and female chimeras with established GVH reaction, P<0.001, FIG. 12): significantly prolonged survival
survival of chimeras (MRL/lpr→MRL+/+ chimeras; two weeks after the transplant): alive
IFN-α synthesis (MRL+/+→MRL+/+ chimeras; FIG. 11A): not affected
TNF-α synthesis (MRL+/+→MRL+/+ chimeras; FIG. 11B): not affected
toxicity, preventive treatment (MRL/lpr mouse [2]; 15 μg/g of mouse): very toxic and the animals died after two months
non-lymphoid organs such as the heart or the kidney (MRL/lpr mouse [2]; [5]): not modified by the treatment
organ weight (lymphoproliferation, hepatomegaly) (MRL/lpr mouse [2]; [5]): normal weight
lymphoproliferation (MRL/lpr mouse [2]; preventive, 1.5 months old mice, 5 μg/g, at T0+1 month): virtually complete absence of the lymphoproliferation
curative effect (skin lesions, size of the nodes) (MRL/lpr mouse [3]; 2.5 μg/g of mouse): not sufficiently effective
lupus-specific skin lesions (MRL/lpr mouse [3]; 5 μg of As2O3/g of mouse daily, after one week of treatment): spectacular signs of improvement
skin lesions (MRL/lpr mouse [3]; 5 μg/g): complete disappearance of skin lesions
skin lesions (MRL/lpr mouse [3]; 7.5 μg/g): complete disappearance of skin lesions
skin lesions (MRL/lpr mouse [3]; 10 μg/g): complete disappearance of skin lesions
toxicity, curative treatment (MRL/lpr mouse [3]; 15 μg/g of mouse): lethal in a few days
immunocomplexes in the kidney (MRL/lpr mouse [3]; FIG. 7): absence of immunocomplexes in the kidney
infiltration of the kidney by cells of the immune system (MRL/lpr mouse [3]; FIG. 7): do not shown any infiltration
Organ weight, 2 lungs (MRL/lpr mouse [3]; [6]): 0.33 grams and 0.40 grams
Organ weight, axillary nodes (MRL/lpr mouse [3]; [6]): 0.01 grams and 0.02 grams
Organ weight, heart (MRL/lpr mouse [3]; [6]): 0.20 grams and 0.25 grams
Organ weight, kidney (MRL/lpr mouse [3]; [6]): 0.52 grams and 0.53 grams
Organ weight, liver (MRL/lpr mouse [3]; [6]): 2.58 grams and 2.89 grams
Organ weight, mesenteric nodes (MRL/lpr mouse [3]; [6]): 0.05 grams
Organ weight, spleen (MRL/lpr mouse [3]; [6]): 0.13 grams and 0.17 grams
Organ weight, 2 lungs (MRL/lpr mouse [3]; [7]): 0.51 grams and 0.50 grams
Organ weight, heart (MRL/lpr mouse [3]; [7]): 0.29 grams and 0.26 grams
Organ weight, kidney (MRL/lpr mouse [3]; [7]): 0.55 grams
Organ weight, liver (MRL/lpr mouse [3]; [7]): 3.21 grams and 3.12 grams
Organ weight, mesenteric nodes (MRL/lpr mouse [3]; [7]): 1.97 grams and 1.03 grams
size of the spleen and of a mesenteric node (MRL/lpr mouse [3]; after 1 month and 20 days of treatment, FIG. 4): spectacular decrease
population of double-negative T lymphocytes TCRαβCD4-CD8-B220+ (MRL/lpr mouse [3]; after 1 month and 20 days of treatment, flow cytometry of spleen and node): virtually complete elimination
survival (MRL/lpr mouse [3]; after 4 months, FIG. 9 legend): all the treated animals are alive
survival and signs of pathology (MRL/lpr mouse [3]; after 35 weeks of treatment, FIG. 9): still alive with no signs of lymphoproliferation or of autoimmune pathologies
pulmonary architecture, infiltration by lymphoid cells (MRL/lpr mouse [3]; anatomopathology, FIG. 3): normal pulmonary architecture
amount of cytokines (alpha-IFN, gamma-IFN, IL-18, TNF-alpha, soluble FasL) (MRL/lpr mouse [3]; compared with normal MRL+/+ mice, FIG. 6): returns the amount of cytokines to a normal level
exophthalmia (MRL/lpr mouse [3]; [8]): spectacular decrease
lupus-related skin lesions (MRL/lpr mouse [3]; [8]): complete disappearance
lowest effective dose (MRL/lpr mouse [3]; mouse): 5 µg/g
glomerulonephritis (MRL/lpr mouse [3]; mouse, in vivo): significant reduction
weight of lymph nodes, spleen and liver compared to MRL+/+ mouse (MRL/lpr mouse [3]; summary of table 1): returns the following organs to a normal weight
double-negative T cells (MRL/lpr mouse [3]; treatment of three months): eliminate all the double-negative T cells
pathologies after stopping treatment (MRL/lpr mouse [3]; treatment stopped for three months): reappearance of the lymphoproliferation and of the hepatomegaly
treated mice alive (MRL/lpr mouse [3]; very sick MRL/lpr mice, at T0+14 weeks): 100%
